Structures can show the parent of a compound that is named as a salt. Where two headings read alike, the source gives them in different places.
Legend:
[1] = target: T1, SARS-CoV-2 PLpro (nsp3 1564–1878) (Severe acute respiratory syndrome coronavirus 2, UniProt P0DTD1); assay: biochemical; parameters: FRET-quenched peptide (Pro3) cleavage by PLpro, 10 min pre-incubation, slope over 20 min, normalised to no-compound control; conditions: read-out: % of control remaining
[2] = target: T1, SARS-CoV-2 PLpro (nsp3 1564–1878); assay: biochemical; parameters: FRET-quenched peptide (Pro3) cleavage by PLpro, 10 min pre-incubation, slope over 20 min, normalised to no-compound control; conditions: read-out: % of control remaining; remark: listed apart in the source

Compound `CC1(C)CCC(CN2CCN(c3ccc(C(=O)NS(=O)(=O)c4ccc(NCC5CCOCC5)c([N+](=O)[O-])c4)c(Oc4cnc5[nH]ccc5c4)c3)CC2)=C(c2ccc(Cl)cc2)C1` [Venetoclax] has a remaining activity at 3.75 µM ([1]; Well no.=6396, high concentration screen) of 104%, a remaining activity at 3.75 µM ([1]; Well no.=7400, high concentration screen) of 94.7% and a remaining activity at 1.25 µM ([2]; Well no.=6396, low concentration screen) of 107%. It also gave a remaining activity at 1.25 µM ([2]; Well no.=7400, low concentration screen) of 91.2%.

In the case of `C[C@H](NC(=O)c1c(C(F)F)nn(C)c1Oc1cccc(C(F)(F)F)c1)c1ccc(C(=O)O)cc1` [E7046], the remaining activity at 3.75 µM ([1]; Well no.=8441, high concentration screen) is reported as 94.6% and the remaining activity at 1.25 µM ([2]; Well no.=8441, low concentration screen) is reported as 94.7%.

For `CCCCCCCCCCCCC/C=C/[C@@H](O)[C@H](CO)NC(=O)CCCCCCC` [C8 Ceramide], the remaining activity at 3.75 µM ([1]; Well no.=4255, high concentration screen) was 99.1% and the remaining activity at 1.25 µM ([2]; Well no.=4255, low concentration screen) was 100%.

`COc1ccc2c(c1)CC[C@@H]1[C@@H]2CC[C@]2(C)[C@@H](NCCCCCCN3C(=O)C=CC3=O)CC[C@@H]12` [U-73122 hydrate] gave a remaining activity at 3.75 µM ([1]; Well no.=5562, high concentration screen) of 93.8% and a remaining activity at 1.25 µM ([2]; Well no.=5562, low concentration screen) of 93%.

`CCCCCCOc1nsnc1C1=CCCN(C)C1` [Xanomeline (oxalate)] gave a remaining activity at 3.75 µM ([1]; Well no.=8005, high concentration screen) of 100% and a remaining activity at 1.25 µM ([2]; Well no.=8005, low concentration screen) of 103%.

`Cn1c([N+](=O)[O-])cnc1COC(N)=O` [Ronidazole] showed a remaining activity at 3.75 µM ([1]; Well no.=4700, high concentration screen) of 96.7% and a remaining activity at 1.25 µM ([2]; Well no.=4700, low concentration screen) of 99.8%.

`NC(=O)c1ccccc1C(=O)N[C@@H](CCC(=O)O)C(=O)O` [Phthalamoyl-L-glutamic acid trisodium] gave a remaining activity at 3.75 µM ([1]; Well no.=1409, high concentration screen) of 101% and a remaining activity at 1.25 µM ([2]; Well no.=1409, low concentration screen) of 99.3%.

Compound `CC(C)/N=c1\cc2n(-c3ccc(Cl)cc3)c3ccccc3nc-2cc1Nc1ccc(Cl)cc1` [Clofazimine] has a remaining activity at 3.75 µM ([1]; Well no.=5649, high concentration screen) of 100% and a remaining activity at 1.25 µM ([2]; Well no.=5649, low concentration screen) of 101%.

`O=C(c1ccccc1O)c1[nH]c(Cl)c(Cl)c1-n1c(C(=O)c2ccccc2O)cc(Cl)c1Cl` [Maritoclax] was tested, and the remaining activity at 3.75 µM ([1]; Well no.=6588, high concentration screen) was 99.2% and the remaining activity at 1.25 µM ([2]; Well no.=6588, low concentration screen) was 101%.

Work on `CC(=O)OC[C@@]1(O)C[C@@]23CC[C@@H]4c5ccoc5CC[C@@]4(C)[C@@H]2CC[C@@H]1C3` [Cafestol acetate] yielded a remaining activity at 3.75 µM ([1]; Well no.=3525, high concentration screen) of 103% and a remaining activity at 1.25 µM ([2]; Well no.=3525, low concentration screen) of 96.8%.

With `CC(C)(C)NCC(O)c1cc(Cl)c(N)c(Cl)c1` (stereo not drawn) [Clenbuterol (hydrochloride)] the remaining activity at 3.75 µM ([1]; Well no.=7371, high concentration screen) was 104% and the remaining activity at 1.25 µM ([2]; Well no.=7371, low concentration screen) was 103%.

`OC[C@H]1O[C@@H](n2cnc3c(NCCc4ccccc4)ncnc32)[C@H](O)[C@@H]1O` [N6-2-Phenylethyladenosine] showed a remaining activity at 3.75 µM ([1]; Well no.=1453, high concentration screen) of 98.6% and a remaining activity at 1.25 µM ([2]; Well no.=1453, low concentration screen) of 98.5%.

With `CCN1C[C@]2(C)CC[C@H](OC)[C@]34C1[C@H]([C@@H](O)[C@H]23)[C@@]1(O)CC[C@H]2C[C@@H]4[C@@H]1C(=O)O2` [Heteratisine] the remaining activity at 3.75 µM ([1]; Well no.=3153, high concentration screen) was 105% and the remaining activity at 1.25 µM ([2]; Well no.=3153, low concentration screen) was 102%.

`O=C(O)CC/C=C\C[C@H]1CO[C@@H](c2ccccc2Cl)O[C@H]1c1ccccc1O` [ICI 192605] gave a remaining activity at 3.75 µM ([1]; Well no.=5873, high concentration screen) of 100% and a remaining activity at 1.25 µM ([2]; Well no.=5873, low concentration screen) of 98.7%.

For `CCC(=O)O[C@@H](O[P@](=O)(CCCCc1ccccc1)CC(=O)N1C[C@H](C2CCCCC2)C[C@H]1C(=O)O)C(C)C` [Fosinopril], the remaining activity at 3.75 µM ([1]; Well no.=1904, high concentration screen) was 89.1% and the remaining activity at 1.25 µM ([2]; Well no.=1904, low concentration screen) was 89.9%.

Work on `COCCCC/C(=N\OCCN)c1ccc(C(F)(F)F)cc1` [Fluvoxamine maleate] yielded a remaining activity at 3.75 µM ([1]; Well no.=467, high concentration screen) of 96.4% and a remaining activity at 1.25 µM ([2]; Well no.=467, low concentration screen) of 95.7%.

`N#CC(C#N)=Cc1cc(O)c(O)c(O)c1` [Tyrphostin 25] gave a remaining activity at 3.75 µM ([1]; Well no.=1485, high concentration screen) of 86.6% and a remaining activity at 1.25 µM ([2]; Well no.=1485, low concentration screen) of 90.9%.

Compound `O=C(O)CCC(=O)O` [Succinic acid] has a remaining activity at 3.75 µM ([1]; Well no.=7353, high concentration screen) of 106% and a remaining activity at 1.25 µM ([2]; Well no.=7353, low concentration screen) of 106%.

Compound `Cc1cc(Nc2cc(N3CCN(C)CC3)nc(Sc3ccc(NC(=O)C4CC4)cc3)n2)n[nH]1` [Tozasertib] has a remaining activity at 3.75 µM ([1]; Well no.=2895, high concentration screen) of 103% and a remaining activity at 1.25 µM ([2]; Well no.=2895, low concentration screen) of 101%.

Work on `O=c1ccn([C@@H]2O[C@H](COP(=O)(O)OP(=O)(O)OP(=O)(O)O)[C@@H](O)[C@H]2O)c(=O)[nH]1` [Uridine triphosphate (trisodium salt)] yielded a remaining activity at 3.75 µM ([1]; Well no.=7810, high concentration screen) of 105% and a remaining activity at 1.25 µM ([2]; Well no.=7810, low concentration screen) of 105%.

`COc1cc2c(cc1OC)[C@H]1CC(=O)[C@H](CC(C)C)CN1CC2` [Tetrabenazine] gave a remaining activity at 3.75 µM ([1]; Well no.=7492, high concentration screen) of 94.7% and a remaining activity at 1.25 µM ([2]; Well no.=7492, low concentration screen) of 94.6%.

For `CN(Cc1cnc2nc(N)nc(N)c2n1)c1ccc(C(=O)N[C@@H](CCC(=O)O)C(=O)O)cc1` [Methotrexate], the remaining activity at 3.75 µM ([1]; Well no.=69, high concentration screen) was 95.5%, the remaining activity at 3.75 µM ([1]; Well no.=7352, high concentration screen) was 97.6% and the remaining activity at 1.25 µM ([2]; Well no.=69, low concentration screen) was 94.1%. For the same compound, the remaining activity at 1.25 µM ([2]; Well no.=7352, low concentration screen) was 94.4%.

`O=S(=O)(O)c1ccc2c(N=Nc3ccc(S(=O)(=O)O)c4ccccc34)c(O)c(S(=O)(=O)O)cc2c1` [Amaranth] was tested, and the remaining activity at 3.75 µM ([1]; Well no.=8462, high concentration screen) was 97.5% and the remaining activity at 1.25 µM ([2]; Well no.=8462, low concentration screen) was 98.1%.

For `CC(CCc1ccccc1)NCC(O)c1ccc(O)c(C(N)=O)c1` (stereo not drawn) [Labetalol (hydrochloride)], the remaining activity at 3.75 µM ([1]; Well no.=8287, high concentration screen) was 94.7% and the remaining activity at 1.25 µM ([2]; Well no.=8287, low concentration screen) was 99.3%.

In the case of `c1cc(OCCN2CCCCC2)cc(-c2n[nH]c3ccc(-c4nnc[nH]4)cc23)c1` [CC-401], the remaining activity at 3.75 µM ([1]; Well no.=3027, high concentration screen) is reported as 96.9% and the remaining activity at 1.25 µM ([2]; Well no.=3027, low concentration screen) is reported as 99.3%.

`CN1CCN(c2nc3cc(C(F)(F)F)ccc3n3cccc23)CC1` [CGS-12066A maleate] showed a remaining activity at 3.75 µM ([1]; Well no.=437, high concentration screen) of 101% and a remaining activity at 1.25 µM ([2]; Well no.=437, low concentration screen) of 102%.

`CCN(C(=O)c1c(O)c2c(Cl)cccc2n(C)c1=O)c1ccccc1` [Laquinimod (ABR-215062)] showed a remaining activity at 3.75 µM ([1]; Well no.=4745, high concentration screen) of 107% and a remaining activity at 1.25 µM ([2]; Well no.=4745, low concentration screen) of 105%.

Work on `CC(C)C[C@H](NC(=O)[C@H](CC(C)C)NC(=O)[C@H](Cc1ccccc1)NC(=O)[C@@H](N)CO)C(=O)N[C@@H](CCCN=C(N)N)C(=O)N[C@@H](CC(N)=O)C(=O)O` [TRAP-6] yielded a remaining activity at 3.75 µM ([1]; Well no.=6278, high concentration screen) of 103%, a remaining activity at 3.75 µM ([1]; Well no.=8364, high concentration screen) of 97.2% and a remaining activity at 1.25 µM ([2]; Well no.=6278, low concentration screen) of 101%. It also gave a remaining activity at 1.25 µM ([2]; Well no.=8364, low concentration screen) of 98.5%.

In the case of `CC(C)(C)[C@]1(O)CCN2C[C@H]3c4ccccc4CCc4cccc(c43)[C@@H]2C1` [(+)-Butaclamol hydrochloride], the remaining activity at 3.75 µM ([1]; Well no.=732, high concentration screen) is reported as 98.3% and the remaining activity at 1.25 µM ([2]; Well no.=732, low concentration screen) is reported as 98.3%.

`C[N+](C)(C)CC=O` [Betaine aldehyde chloride] was tested, and the remaining activity at 3.75 µM ([1]; Well no.=125, high concentration screen) was 102% and the remaining activity at 1.25 µM ([2]; Well no.=125, low concentration screen) was 96.6%.

`CC1CNCCN1S(=O)(=O)c1cccc2cnccc12` (stereo not drawn) [1-(5-Isoquinolinylsulfonyl)-2-methylpiperazine dihydrochloride] gave a remaining activity at 3.75 µM ([1]; Well no.=965, high concentration screen) of 103% and a remaining activity at 1.25 µM ([2]; Well no.=965, low concentration screen) of 104%.

In the case of `CNCCNS(=O)(=O)c1cccc2cnccc12` [H-8, Dihydrochloride], the remaining activity at 3.75 µM ([1]; Well no.=2431, high concentration screen) is reported as 105% and the remaining activity at 1.25 µM ([2]; Well no.=2431, low concentration screen) is reported as 106%.

Compound `NC(=O)NCCCC[C@H](N)C(=O)O` [L-Homocitrulline] has a remaining activity at 3.75 µM [1] of 89.3% and a remaining activity at 1.25 µM [2] of 101%.
